Assay results published in patent US20250171495A1, “MUTLI-TARGETED SERINE PROTEASE INHIBITORS FOR TREATMENT OF CANCER AND VIRAL INFECTION” (Washington University, priority 2023, published 2025).
Values joined by “and” are separate entries in the source; they are usually repeats but may differ in a detail not shown here. Identical values can stand only once.

How the values were obtained:
Format in all cases: biochemical
TMPRSS2 = TMPRSS2 (Homo sapiens, UniProt O15393); assay: PS-SCL / HyCoSuL substrate specificity screening, TMPRSS2; details: for P2 Position Substrate Activity for TMPRSS2 (percent substrate cleavage/proteolysis): residue fixed at P2 position of substrate library; for P2 Position Substrate Activity for TMPRSS2 (percent substrate cleavage/proteolysis) / P3 Position Substrate Activity for TMPRSS2 (percent substrate cleavage/proteolysis) / P4 Position Substrate Activity for TMPRSS2 (percent substrate cleavage/proteolysis): best recognized amino acid set to 100%; for P3 Position Substrate Activity for TMPRSS2 (percent substrate cleavage/proteolysis) / P3 Position Various Amino Acids Substrate Activity, TMPRSS2 (percent substrate cleavage/proteolysis): residue fixed at P3 position of substrate library; for P4 Position Various Amino Acids Substrate Activity, TMPRSS2 (percent substrate proteolysis/cleavage) / P4 Position Substrate Activity for TMPRSS2 (percent substrate cleavage/proteolysis): residue fixed at P4 position of substrate library
matriptase = target: T1, matriptase (Homo sapiens, UniProt Q9Y5Y6); assay: HyCoSuL P4-P2 substrate specificity screening, matriptase; details: for P2 Position Substrate Activity for matriptase (percent substrate cleavage/proteolysis): residue fixed at P2 position; for P2 Position Substrate Activity for matriptase (percent substrate cleavage/proteolysis) / P3 Position Substrate Activity for matriptase (percent substrate cleavage/proteolysis) / P4 Position Substrate Activity for matriptase (percent substrate cleavage/proteolysis): P1-Arg HyCoSuL, 100 μM, best recognized amino acid set to 100%; for P3 Position Various Amino Acids Substrate Activity, matriptase (percent substrate cleavage/proteolysis): residue fixed at P3 position of substrate library; for P3 Position Substrate Activity for matriptase (percent substrate cleavage/proteolysis): residue fixed at P3 position; for P4 Position Various Amino Acids Substrate Activity, matriptase (percent substrate proteolysis/cleavage): residue fixed at P4 position of substrate library; for P4 Position Substrate Activity for matriptase (percent substrate cleavage/proteolysis): residue fixed at P4 position
T1 sequence (Q9Y5Y6 1-855): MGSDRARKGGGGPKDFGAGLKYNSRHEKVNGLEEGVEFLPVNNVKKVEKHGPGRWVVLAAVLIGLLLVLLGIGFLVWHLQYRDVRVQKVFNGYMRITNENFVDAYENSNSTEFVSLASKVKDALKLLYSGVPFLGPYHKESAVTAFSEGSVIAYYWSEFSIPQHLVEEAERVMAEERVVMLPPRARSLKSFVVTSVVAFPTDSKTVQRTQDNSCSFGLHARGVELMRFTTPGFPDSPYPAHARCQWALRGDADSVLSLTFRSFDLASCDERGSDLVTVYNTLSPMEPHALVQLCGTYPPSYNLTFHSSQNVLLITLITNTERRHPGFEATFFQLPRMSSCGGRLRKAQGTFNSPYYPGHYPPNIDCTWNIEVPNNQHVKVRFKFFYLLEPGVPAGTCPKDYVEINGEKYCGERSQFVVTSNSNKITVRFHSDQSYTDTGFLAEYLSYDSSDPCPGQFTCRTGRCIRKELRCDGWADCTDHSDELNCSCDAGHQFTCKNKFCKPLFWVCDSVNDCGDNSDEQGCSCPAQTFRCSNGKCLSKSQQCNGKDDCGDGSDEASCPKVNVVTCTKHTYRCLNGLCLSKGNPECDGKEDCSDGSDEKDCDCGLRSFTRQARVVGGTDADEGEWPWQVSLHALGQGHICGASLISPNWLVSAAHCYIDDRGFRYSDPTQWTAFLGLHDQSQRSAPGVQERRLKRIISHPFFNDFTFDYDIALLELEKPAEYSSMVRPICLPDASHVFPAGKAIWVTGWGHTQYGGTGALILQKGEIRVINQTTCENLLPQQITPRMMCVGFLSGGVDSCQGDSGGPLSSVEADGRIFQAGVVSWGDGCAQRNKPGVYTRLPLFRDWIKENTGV

hepsin = target: T2, hepsin (Homo sapiens, UniProt P05981); assay: HyCoSuL P4-P2 substrate specificity screening, hepsin; details: for P2 Position Substrate Activity for hepsin (percent substrate cleavage/proteolysis): residue fixed at P2 position; for P2 Position Substrate Activity for hepsin (percent substrate cleavage/proteolysis) / P3 Position Substrate Activity for hepsin (percent substrate cleavage/proteolysis) / P4 Position Substrate Activity for hepsin (percent substrate cleavage/proteolysis): P1-Arg HyCoSuL, 100 μM, best recognized amino acid set to 100%; for P3 Position Substrate Activity for hepsin (percent substrate cleavage/proteolysis): residue fixed at P3 position; for P4 Position Various Amino Acids Substrate Activity, hepsin (percent substrate proteolysis/cleavage): residue fixed at P4 position of substrate library; for P3 Position Various Amino Acids Substrate Activity, hepsin (percent substrate cleavage/proteolysis): residue fixed at P3 position of substrate library; for P4 Position Substrate Activity for hepsin (percent substrate cleavage/proteolysis): residue fixed at P4 position
T2 construct: purchased R&D Systems 4776-SE-010

HGFA = target: T3, HGFA (Homo sapiens, UniProt Q04756); assay: HyCoSuL P4-P2 substrate specificity screening, HGFA; details: for P2 Position Substrate Activity for HGFA (percent substrate cleavage/proteolysis): residue fixed at P2 position; for P2 Position Substrate Activity for HGFA (percent substrate cleavage/proteolysis) / P3 Position Substrate Activity for HGFA (percent substrate cleavage/proteolysis) / P4 Position Substrate Activity for HGFA (percent substrate cleavage/proteolysis): P1-Arg HyCoSuL, 100 μM, best recognized amino acid set to 100%; for P3 Position Substrate Activity for HGFA (percent substrate cleavage/proteolysis): residue fixed at P3 position; for P4 Position Various Amino Acids Substrate Activity, HGFA (percent substrate proteolysis/cleavage): residue fixed at P4 position of substrate library; for P3 Position Various Amino Acids Substrate Activity, HGFA (percent substrate cleavage/proteolysis): residue fixed at P3 position of substrate library; for P4 Position Substrate Activity for HGFA (percent substrate cleavage/proteolysis): residue fixed at P4 position
T3 sequence (Q04756 373-655): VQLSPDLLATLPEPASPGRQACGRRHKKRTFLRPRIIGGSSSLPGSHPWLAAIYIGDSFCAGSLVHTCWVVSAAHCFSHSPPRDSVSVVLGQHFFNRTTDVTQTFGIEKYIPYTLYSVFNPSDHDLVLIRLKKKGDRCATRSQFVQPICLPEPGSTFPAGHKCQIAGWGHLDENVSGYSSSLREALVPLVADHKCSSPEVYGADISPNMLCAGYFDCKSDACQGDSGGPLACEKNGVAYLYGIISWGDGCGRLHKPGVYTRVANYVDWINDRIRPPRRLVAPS

T2 sequence (P05981 163-417 limits assumed): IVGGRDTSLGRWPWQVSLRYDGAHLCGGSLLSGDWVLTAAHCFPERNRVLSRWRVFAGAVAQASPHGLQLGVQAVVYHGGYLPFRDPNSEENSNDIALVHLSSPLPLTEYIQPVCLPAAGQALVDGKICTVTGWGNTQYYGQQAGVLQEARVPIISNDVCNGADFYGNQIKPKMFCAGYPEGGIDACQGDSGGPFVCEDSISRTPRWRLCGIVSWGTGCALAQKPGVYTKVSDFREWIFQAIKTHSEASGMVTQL
T2 sequence (P05981 1-162 partner limits assumed): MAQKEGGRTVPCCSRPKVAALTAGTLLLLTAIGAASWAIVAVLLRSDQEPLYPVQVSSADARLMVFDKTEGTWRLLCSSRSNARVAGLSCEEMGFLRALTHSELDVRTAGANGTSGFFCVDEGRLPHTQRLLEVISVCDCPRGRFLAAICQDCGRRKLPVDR
Sequence of TMPRSS2 (O15393 whole entry): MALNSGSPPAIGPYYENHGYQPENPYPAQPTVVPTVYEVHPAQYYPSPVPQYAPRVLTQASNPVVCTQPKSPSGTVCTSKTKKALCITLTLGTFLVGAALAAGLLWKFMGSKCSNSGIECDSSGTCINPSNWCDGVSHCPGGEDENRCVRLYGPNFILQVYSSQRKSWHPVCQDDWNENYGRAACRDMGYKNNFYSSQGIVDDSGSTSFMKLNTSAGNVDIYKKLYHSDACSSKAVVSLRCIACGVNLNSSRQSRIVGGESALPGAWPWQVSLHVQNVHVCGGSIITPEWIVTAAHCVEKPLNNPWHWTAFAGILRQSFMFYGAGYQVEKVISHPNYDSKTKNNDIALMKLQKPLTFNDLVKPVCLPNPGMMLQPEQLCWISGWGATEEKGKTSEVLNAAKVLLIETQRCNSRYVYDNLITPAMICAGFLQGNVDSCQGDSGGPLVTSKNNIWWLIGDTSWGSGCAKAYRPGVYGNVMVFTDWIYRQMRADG

P2 Position Substrate Activity for TMPRSS2 (percent substrate cleavage/proteolysis) (TMPRSS2) | P3 Position Substrate Activity for TMPRSS2 (percent substrate cleavage/proteolysis) (TMPRSS2) | P4 Position Various Amino Acids Substrate Activity, TMPRSS2 (percent substrate proteolysis/cleavage) (TMPRSS2) | P2 Position Substrate Activity for matriptase (percent substrate cleavage/proteolysis) (matriptase) | P3 Position Various Amino Acids Substrate Activity, matriptase (percent substrate cleavage/proteolysis) (matriptase) | P3 Position Substrate Activity for matriptase (percent substrate cleavage/proteolysis) (matriptase) | P4 Position Various Amino Acids Substrate Activity, matriptase (percent substrate proteolysis/cleavage) (matriptase) | P2 Position Substrate Activity for hepsin (percent substrate cleavage/proteolysis) (hepsin) | P3 Position Substrate Activity for hepsin (percent substrate cleavage/proteolysis) (hepsin) | P4 Position Various Amino Acids Substrate Activity, hepsin (percent substrate proteolysis/cleavage) (hepsin) | P2 Position Substrate Activity for HGFA (percent substrate cleavage/proteolysis) (HGFA) | P3 Position Substrate Activity for HGFA (percent substrate cleavage/proteolysis) (HGFA) | P4 Position Various Amino Acids Substrate Activity, HGFA (percent substrate proteolysis/cleavage) (HGFA) | P3 Position Various Amino Acids Substrate Activity, TMPRSS2 (percent substrate cleavage/proteolysis) (TMPRSS2) | P3 Position Various Amino Acids Substrate Activity, hepsin (percent substrate cleavage/proteolysis) (hepsin) | P3 Position Various Amino Acids Substrate Activity, HGFA (percent substrate cleavage/proteolysis) (HGFA) | P4 Position Substrate Activity for TMPRSS2 (percent substrate cleavage/proteolysis) (TMPRSS2) | P4 Position Substrate Activity for matriptase (percent substrate cleavage/proteolysis) (matriptase) | P4 Position Substrate Activity for hepsin (percent substrate cleavage/proteolysis) (hepsin) | P4 Position Substrate Activity for HGFA (percent substrate cleavage/proteolysis) (HGFA) | Substance
4.32% | 43.61% | 16.80% | 9% | 52% | 51.80% | 16% | 10.01% | 48.71% | 35.65% | 1.49% | 24.27% | 13.31% |  |  |  |  |  |  |  | L-Dap
6.03% |  | 26.44% | 1% | 18% |  | 0% | 0.00% |  | 0.76% | 0.89% |  | 1.96% | 52.35% | 16.72% | 3.47% |  |  |  |  | L-Gln
6.08% |  | 9.81% | 6% | 44% |  | 18% | 12.19% |  | 29.82% | 3.35% |  | 9.01% | 56.51% | 58.69% | 15.98% |  |  |  |  | L-Glu
15.38% |  | 24.98% | 30% | 17% |  | 10% | 31.24% |  | 25.35% | 4.00% |  | 8.90% | 26.27% | 43.05% | 11.93% |  |  |  |  | L-His
10.38% |  |  | 2% | 0% |  | 50% | 38.67% |  |  | 3.95% |  |  | 2.19% | 4.70% | 2.18% | 33.28% | 50.16% | 37.81% | 10.66% | L-Hyp
7.29% |  | 63.74% | 3% | 13% |  | 32% | 45.68% |  | 47.02% | 4.94% |  | 14.09% | 13.26% | 11.37% | 9.06% |  |  |  |  | L-Ile
5.90% |  | 30.24% | 12% | 22% |  | 17% | 100.00% |  | 33.10% | 100.00% |  | 10.18% | 18.81% | 19.51% | 13.71% |  |  |  |  | L-Leu
3.79% | 27.86% |  | 6% | 81% | 76.43% and 80.67% | 75% | 46.70% | 80.71% |  | 1.04% | 44.63% |  |  |  |  | 14.11% | 75.49% | 75.43% | 18.29% | L-Lys

Substance | P2 Position Substrate Activity for TMPRSS2 (percent substrate cleavage/proteolysis) (TMPRSS2) | P3 Position Substrate Activity for TMPRSS2 (percent substrate cleavage/proteolysis) (TMPRSS2) | P4 Position Various Amino Acids Substrate Activity, TMPRSS2 (percent substrate proteolysis/cleavage) (TMPRSS2) | P2 Position Substrate Activity for matriptase (percent substrate cleavage/proteolysis) (matriptase) | P3 Position Various Amino Acids Substrate Activity, matriptase (percent substrate cleavage/proteolysis) (matriptase) | P3 Position Substrate Activity for matriptase (percent substrate cleavage/proteolysis) (matriptase) | P4 Position Various Amino Acids Substrate Activity, matriptase (percent substrate proteolysis/cleavage) (matriptase) | P2 Position Substrate Activity for hepsin (percent substrate cleavage/proteolysis) (hepsin) | P3 Position Substrate Activity for hepsin (percent substrate cleavage/proteolysis) (hepsin) | P4 Position Various Amino Acids Substrate Activity, hepsin (percent substrate proteolysis/cleavage) (hepsin) | P2 Position Substrate Activity for HGFA (percent substrate cleavage/proteolysis) (HGFA) | P3 Position Substrate Activity for HGFA (percent substrate cleavage/proteolysis) (HGFA) | P4 Position Various Amino Acids Substrate Activity, HGFA (percent substrate proteolysis/cleavage) (HGFA) | P3 Position Various Amino Acids Substrate Activity, TMPRSS2 (percent substrate cleavage/proteolysis) (TMPRSS2) | P3 Position Various Amino Acids Substrate Activity, hepsin (percent substrate cleavage/proteolysis) (hepsin) | P3 Position Various Amino Acids Substrate Activity, HGFA (percent substrate cleavage/proteolysis) (HGFA) | P4 Position Substrate Activity for TMPRSS2 (percent substrate cleavage/proteolysis) (TMPRSS2) | P4 Position Substrate Activity for matriptase (percent substrate cleavage/proteolysis) (matriptase) | P4 Position Substrate Activity for hepsin (percent substrate cleavage/proteolysis) (hepsin) | P4 Position Substrate Activity for HGFA (percent substrate cleavage/proteolysis) (HGFA)
L-Dab | 0.00% | 36.73% | 12.90% | 0% | 66% | 66.02% | 32% | 13.49% | 48.55% | 47.53% | 0.50% | 29.40% | 16.76% |  |  |  |  |  |  | 
